What was measured:
[1] = target: recombinant human FGFR2 cytoplasmic domain (amino acids 403-822) (Homo sapiens (Human), UniProt P21802); experiment: FGFR2 enzyme activity assay (LanthaScreen TR-FRET); format: biochemical; conditions: 15 μM ATP, 20 min incubation at 22° C., average of multiple determinations if made, read-out: FGFR2 Enz FRET IC50
In short: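 Substrate phosphorylation was read by TR-FRET using Eu-PY20 antibody (60 min, 22 °C) after a 20 min, 22 °C reaction. The reaction used 15 μM ATP, 100 nM fluorescent poly-GT peptide and His-tagged FGFR2 403-822 ([…]) at pH 7.5 with 2% DMSO.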

[2] = target: phosphorylated FGFR3 (SEQ ID NO: 5, amino acids 449 to 759) (Homo sapiens (Human), UniProt P22607); experiment: FGFR enzyme binding assay (HTRF tracer displacement), FGFR3; conditions: 5 nM phosphorylated FGFR3, average of multiple determinations if made
In short: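 Kinase and tracer were incubated with compound for 60 minutes at 22° C. Tracer displacement was then measured by HTRF, and results were expressed as POC with 1 μM control inhibitor defining full displacement.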

[3] = target: recombinant human FGFR1 catalytic domain (amino acids 308-731) (Homo sapiens (Human), UniProt P11362); experiment: FGFR1 enzyme activity assay (LanthaScreen TR-FRET); format: biochemical; conditions: 20 min incubation at 22° C., average of multiple determinations if made, read-out: FGFR1 Enz FRET IC50
In short: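 His-tagged FGFR1 kinase domain with 100 nM Alexa Fluor 647-poly-GT peptide and ATP in pH 7.5 HEPES/MgCl2 buffer with 2% DMSO, 20 min at 22 °C. Quenched with EDTA plus 2 nM Eu-PY20 antibody and read after 60 min. IC50 comes from a 4-parameter fit of percent of control.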

[4] = target: recombinant human FGFR3 (amino acids R397-T806) (Homo sapiens (Human), UniProt P22607); experiment: FGFR3 enzyme activity assay (LanthaScreen TR-FRET); format: biochemical; conditions: 25 μM ATP, 10 min incubation at 22° C., average of multiple determinations if made, read-out: FGFR3 Enz FRET IC50
In short: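 GST-HIS6-tagged human FGFR3 (R397-T806) was reacted with 100 nM Alexa Fluor 647-Poly-GT substrate and 25 μM ATP plus compound in HEPES/MgCl2/Triton buffer, pH 7.5, 2% DMSO, for 10 min at 22 °C.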

[5] = target: FGFR3 (SEQ ID NO: 5, amino acids 449-759) (Homo sapiens (Human), UniProt P22607); experiment: LC/MS FGFR3 kobs assay (covalent protein modification); format: binding; conditions: 500 nM FGFR3, 3 μM compound
In short: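 Quench: 0.4% formic acid at each time point. Readout: intact-protein LC/MS (Q-TOF), deconvoluted masses. Analysis: % unmodified, normalized to DMSO controls, fit to exponential decay → kobs; mean of replicates where repeated.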

Chain of recombinant human FGFR2 cytoplasmic domain (amino acids 403-822) (P21802 402-821): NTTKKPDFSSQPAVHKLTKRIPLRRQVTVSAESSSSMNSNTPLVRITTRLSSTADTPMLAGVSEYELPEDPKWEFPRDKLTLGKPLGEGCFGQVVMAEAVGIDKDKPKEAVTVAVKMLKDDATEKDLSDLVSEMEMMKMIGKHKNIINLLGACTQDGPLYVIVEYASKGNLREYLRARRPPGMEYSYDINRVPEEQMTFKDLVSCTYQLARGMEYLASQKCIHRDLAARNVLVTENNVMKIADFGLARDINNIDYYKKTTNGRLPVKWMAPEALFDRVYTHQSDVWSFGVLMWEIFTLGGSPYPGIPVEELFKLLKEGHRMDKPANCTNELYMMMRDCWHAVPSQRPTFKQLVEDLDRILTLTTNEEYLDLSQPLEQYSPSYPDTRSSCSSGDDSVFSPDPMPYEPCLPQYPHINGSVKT
Chain of recombinant human FGFR3 (amino acids R397-T806) (P22607 397-806): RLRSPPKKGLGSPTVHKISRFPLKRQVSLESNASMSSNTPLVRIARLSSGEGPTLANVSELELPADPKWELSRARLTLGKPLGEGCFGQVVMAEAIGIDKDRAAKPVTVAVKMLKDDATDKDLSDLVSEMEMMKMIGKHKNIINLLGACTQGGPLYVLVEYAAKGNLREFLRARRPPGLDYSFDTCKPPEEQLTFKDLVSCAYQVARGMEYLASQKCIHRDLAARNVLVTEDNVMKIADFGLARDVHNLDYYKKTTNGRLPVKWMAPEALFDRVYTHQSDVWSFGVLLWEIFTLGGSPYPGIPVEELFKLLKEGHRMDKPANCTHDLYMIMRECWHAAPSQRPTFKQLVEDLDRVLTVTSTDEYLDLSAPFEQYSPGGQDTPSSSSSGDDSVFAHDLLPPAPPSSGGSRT
Chain of phosphorylated FGFR3 (SEQ ID NO: 5, amino acids 449 to 759) (P22607 449-759): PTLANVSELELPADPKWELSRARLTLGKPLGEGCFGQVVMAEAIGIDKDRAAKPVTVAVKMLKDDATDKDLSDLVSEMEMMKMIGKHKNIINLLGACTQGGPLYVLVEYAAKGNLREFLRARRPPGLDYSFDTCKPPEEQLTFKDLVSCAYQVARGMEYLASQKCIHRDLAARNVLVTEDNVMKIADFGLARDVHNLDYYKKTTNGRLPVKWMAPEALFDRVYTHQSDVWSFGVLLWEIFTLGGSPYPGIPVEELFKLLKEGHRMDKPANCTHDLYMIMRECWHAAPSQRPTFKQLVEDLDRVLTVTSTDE
Chain of FGFR3 (SEQ ID NO: 5, amino acids 449-759) (P22607 449-759): as above
Chain of recombinant human FGFR1 catalytic domain (amino acids 308-731) (P11362 other isoform, or with tags, fused parts or gaps): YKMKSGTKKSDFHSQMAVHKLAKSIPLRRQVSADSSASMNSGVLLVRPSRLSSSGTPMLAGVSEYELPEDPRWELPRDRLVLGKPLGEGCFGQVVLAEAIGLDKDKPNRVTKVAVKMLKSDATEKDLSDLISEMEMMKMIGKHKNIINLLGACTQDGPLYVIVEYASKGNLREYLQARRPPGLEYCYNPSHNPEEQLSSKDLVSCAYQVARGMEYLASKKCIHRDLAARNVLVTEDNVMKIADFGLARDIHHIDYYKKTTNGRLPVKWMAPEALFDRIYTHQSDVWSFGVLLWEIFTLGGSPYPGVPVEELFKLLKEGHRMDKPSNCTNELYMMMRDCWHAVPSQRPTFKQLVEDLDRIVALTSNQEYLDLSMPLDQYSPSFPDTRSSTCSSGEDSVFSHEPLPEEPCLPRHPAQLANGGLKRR

IC50 [1] [nM] | IC50 [2] [nM] | IC50 [3] [nM] | IC50 [4] [nM] | FGFR3 Enz kobs [5] [min⁻¹] | Compound
15 | 22 | 100 | 6 | 0.02394 | C=CC(=O)N1CC(C(=O)N2CCC(n3ncc(-c4cc(OC)c5c(C#N)cnn5c4)c3C)CC2)C1 [Example 84, 6-(1-(1-(1-acryloylazetidine-3-carbonyl)piperidin-4-yl)-5-methyl-1H-pyrazol-4-yl)-4-methoxypyrazolo[1,5-a]pyridine-3-carbonitrile]
22 | 18 | 73 | 8 | 0.01518 | C=CC(=O)N1CC(C(=O)N2CCC(n3cc(-c4cc(OC)c5c(C#N)cnn5c4)c(C)n3)CC2)C1 [Example 94, 6-(1-(1-(1-acryloylazetidine-3-carbonyl)piperidin-4-yl)-3-methyl-1H-pyrazol-4-yl)-4-methoxypyrazolo[1,5-a]pyridine-3-carbonitrile]
69 | 3 | 152 | 29 | 0.05581 | C=CC(=O)N1CC(OC)(C(=O)N2CCC(n3ncc(-c4cc(OC)c5c(C#N)cnn5c4)c3C)CC2)C1 [Example 88, 6-(1-(1-(1-acryloyl-3-methoxyazetidine-3-carbonyl)piperidin-4-yl)-5-methyl-1H-pyrazol-4-yl)-4-methoxypyrazolo[1,5-a]pyridine-3-carbonitrile]
9 | 14 | 77 | 7 | 0.00547 | C=CC(=O)N1CC[C@@H](C(=O)N2CCC(n3ncc(-c4cc(OC)c5c(C#N)cnn5c4)c3C)CC2)C1 [Example 83, (R)-6-(1-(1-(1-acryloylpyrrolidine-3-carbonyl)piperidin-4-yl)-5-methyl-1H-pyrazol-4-yl)-4-methoxypyrazolo[1,5-a]pyridine-3-carbonitrile]
4 | – | 11 | 8 | 0.01958 | C=CC(=O)Nc1ccc(C(=O)N2CCC(n3cc(-c4cc(OC)c5c(C#N)cnn5c4)cn3)CC2)cc1 [Example 177, N-(4-(4-(4-(3-cyano-4-methoxypyrazolo[1,5-a]pyridin-6-yl)-1H-pyrazol-1-yl)piperidine-1-carbonyl)phenyl)acrylamide]

The next lines start with the compound.

Compound | IC50 [1] [nM] | IC50 [2] [nM] | IC50 [3] [nM] | IC50 [4] [nM] | FGFR3 Enz kobs [5] [min⁻¹]
C=CC(=O)Nc1ccc(C(=O)N2CC[C@H](n3cc(-c4cc(OC)c5c(C#N)cnn5c4)cn3)C2)c(C)c1 [Example 68, (S)-N-(4-(3-(4-(3-cyano-4-methoxypyrazolo[1,5-a]pyridin-6-yl)-1H-pyrazol-1-yl)pyrrolidine-1-carbonyl)-3-methylphenyl)acrylamide] | 4 | 13 | 6 | 5 | 0.0095
C=CC(=O)N1CC(C(=O)N2CC(n3cc(-c4cc(OC)c5c(C#N)cnn5c4)cn3)C2)C1 [Example 78, 6-(1-(1-(1-acryloylazetidine-3-carbonyl)azetidin-3-yl)-1H-pyrazol-4-yl)-4-methoxypyrazolo[1,5-a]pyridine-3-carbonitrile] | 23 | 8 | 17 | 12 | 0.01629
C=CC(=O)N1CCC(C(=O)N2CCC(n3ncc(-c4cc(OC)c5c(C#N)cnn5c4)c3C)CC2)CC1 [Example 82, 6-(1-(1-(1-acryloylpiperidine-4-carbonyl)piperidin-4-yl)-5-methyl-1H-pyrazol-4-yl)-4-methoxypyrazolo[1,5-a]pyridine-3-carbonitrile] | 9 | 23 | 73 | 10 | 0.00319
C=CC(=O)N1CC(C)(C(=O)N2CCC(n3cc(-c4cc(OC)c5c(C#N)cnn5c4)cn3)CC2)C1 [Example 38, 6-(1-(1-(1-acryloyl-3-methylazetidine-3-carbonyl)piperidin-4-yl)-1H-pyrazol-4-yl)-4-methoxypyrazolo[1,5-a]pyridine-3-carbonitrile] | 3 | 2 | 10 | 3 | 0.01168
C=CC(=O)N1CCC(C(=O)N2CCC(n3cc(-c4cc(OC)c5c(C#N)cnn5c4)cn3)CC2)C(F)(F)C1 (stereo not drawn) [Example 15, 6-(1-(1-(1-acryloyl-3,3-difluoropiperidine-4-carbonyl)piperidin-4-yl)-1H-pyrazol-4-yl)-4-methoxypyrazolo[1,5-a]pyridine-3-carbonitrile] | 2 | 2 | 7 | 2 | 0.01716
C=CC(=O)Nc1ccc(C(=O)N2CC[C@H](n3cc(-c4cc(OC)c5c(C#N)cnn5c4)cn3)C2)c(OC)c1 [Example 69, (S)-N-(4-(3-(4-(3-cyano-4-methoxypyrazolo[1,5-a]pyridin-6-yl)-1H-pyrazol-1-yl)pyrrolidine-1-carbonyl)-3-methoxyphenyl)acrylamide] | 6 | 11 | 12 | 6 | 0.01649
C=CC(=O)N1CC[C@@H](C(=O)N2CCC(n3cc(-c4cc(OC)c5c(C#N)cnn5c4)cn3)CC2)C1 [Example 29, (R)-6-(1-(1-(1-acryloylpyrrolidine-3-carbonyl)piperidin-4-yl)-1H-pyrazol-4-yl)-4-methoxypyrazolo[1,5-a]pyridine-3-carbonitrile] | 8 | 43 | 24 | 11 | 0.00297
C=CC(=O)Nc1cccc(C(=O)N2CC[C@@H](n3cc(-c4cc(OC)c5c(C#N)cnn5c4)cn3)C2)c1 [Example 56, (R)-N-(3-(3-(4-(3-cyano-4-methoxypyrazolo[1,5-a]pyridin-6-yl)-1H-pyrazol-1-yl)pyrrolidine-1-carbonyl)phenyl)acrylamide] | 8 | 18 | 28 | 10 | 0.01264
C=CC(=O)N1CC(C(=O)N2C3CC2CN(c2ccc(-c4cc(OC)c5c(C#N)cnn5c4)cn2)C3)C1 [Example 52, 6-(6-(6-(1-acryloylazetidine-3-carbonyl)-3,6-diazabicyclo[3.1.1]heptan-3-yl)pyridin-3-yl)-4-methoxypyrazolo[1,5-a]pyridine-3-carbonitrile] | 14 | 14 | 66 | 34 | 0.00929
C=CC(=O)N1CC[C@H](C(=O)N2CC(n3cc(-c4cc(OC)c5c(C#N)cnn5c4)cn3)C2)C1 [Example 76, (S)-6-(1-(1-(1-acryloylpyrrolidine-3-carbonyl)azetidin-3-yl)-1H-pyrazol-4-yl)-4-methoxypyrazolo[1,5-a]pyridine-3-carbonitrile] | 17 | 55 | 52 | 13 | 0.00317
C=CC(=O)N1CC(C(=O)N2CCC(n3cc(-c4cc(OC)c5c(C#N)cnn5c4)cn3)CC2)C1 [Example 36, 6-(1-(1-(1-acryloylazetidine-3-carbonyl)piperidin-4-yl)-1H-pyrazol-4-yl)-4-methoxypyrazolo[1,5-a]pyridine-3-carbonitrile] | – | 4 | 11 | 4 | 0.01426

Reference: patent US12180207B2 (ARRAY BIOPHARMA INC., priority 2018, dated 2024)
